Test results taken from ChEMBL document CHEMBL1649196, “Comparative in vitro susceptibilities of human mycoplasmas and ureaplasmas to a new investigational ketolide, CEM-101” (2009).
In brackets after ≈: the same amount, converted by molar mass.

How the values were obtained:
Type in all cases: functional
[1] = tested on: Mycoplasma genitalium; assay: Antimicrobial activity against Mycoplasma genitalium isolated from human by two fold serial dilution method; conditions: Mycoplasmoides genitalium
[2] = tested on: Ureaplasma urealyticum; assay: Antimicrobial activity against Ureaplasma urealyticum isolated from human by two fold serial dilution method
[3] = tested on: Ureaplasma parvum; assay: Antimicrobial activity against Ureaplasma parvum isolated from human by two fold serial dilution method
[4] = tested on: Mycoplasma fermentans; assay: Antimicrobial activity against Mycoplasma fermentans isolated from human by two fold serial dilution method; conditions: Mycoplasmopsis fermentans
[5] = tested on: Mycoplasmoides pneumoniae; assay: Antimicrobial activity against Mycoplasma pneumoniae isolated from human by two fold serial dilution method
[6] = tested on: Metamycoplasma hominis; assay: Antimicrobial activity against Mycoplasma hominis isolated from human by two fold serial dilution method

| Compound | MIC [1] | MIC50 [2] | MIC90 [2] | MIC50 [3] | MIC90 [3] | MIC50 [4] | MIC90 [4] | MIC50 [5] | MIC90 [5] | MIC [6] | MIC50 [6] | MIC90 [6] | MIC [4] | MIC [2] |
| --- | --- | --- | --- | --- | --- | --- | --- | --- | --- | --- | --- | --- | --- | --- |
| CC[C@H]1OC(=O)[C@H](C)[C@@H](O[C@H]2C[C@@](C)(OC)[C@@H](O)[C@H](C)O2)[C@H](C)[C@@H](O[C@@H]2O[C@H](C)C[C@H](N(C)C)[C@H]2O)[C@](C)(O)C[C@@H](C)CN(C)[C@H](C)[C@@H](O)[C@]1(C)O [AZITHROMYCIN] | ≤ 0.032 ng/mL | 2000 ng/mL (≈ 2670 nM) | 4000 ng/mL (≈ 5340 nM) | 2000 ng/mL (≈ 2670 nM) | 4000 ng/mL (≈ 5340 nM) | 500 ng/mL (≈ 668 nM) | 500 ng/mL (≈ 668 nM) | 0.25 ng/mL (≈ 0.334 nM) | 0.5 ng/mL (≈ 0.668 nM) |  |  |  |  |  |
| C[C@H]1c2cccc(O)c2C(=O)C2=C(O)[C@]3(O)C(=O)C(C(N)=O)=C(O)[C@@H](N(C)C)[C@@H]3[C@@H](O)[C@@H]21.O [DOXYCYCLINE] | ≤ 8 ng/mL | 1000 ng/mL | 16000 ng/mL | 8000 ng/mL | 16000 ng/mL | 125 ng/mL | 500 ng/mL | 125 ng/mL | 250 ng/mL |  | 125 ng/mL | 8000 ng/mL |  |  |
| C[C@H]1COc2c(N3CCN(C)CC3)c(F)cc3c(=O)c(C(=O)O)cn1c23.C[C@H]1COc2c(N3CCN(C)CC3)c(F)cc3c(=O)c(C(=O)O)cn1c23.O [LEVOFLOXACIN] | 125 ng/mL | 500 ng/mL | 1000 ng/mL | 500 ng/mL | 2000 ng/mL | 31 ng/mL | 125 ng/mL | 500 ng/mL | 500 ng/mL |  | 250 ng/mL | 500 ng/mL |  | 500 ng/mL |
| CC(=O)NC[C@H]1CN(c2ccc(N3CCOCC3)c(F)c2)C(=O)O1 [LINEZOLID] | 4000 ng/mL (≈ 11900 nM) |  | > 256000 ng/mL | > 256000 ng/mL | > 256000 ng/mL | 1000 ng/mL (≈ 2960 nM) | 4000 ng/mL (≈ 11900 nM) | 64000 ng/mL (≈ 190000 nM) | 128000 ng/mL (≈ 379000 nM) |  | 2000 ng/mL (≈ 5930 nM) | 4000 ng/mL (≈ 11900 nM) |  | ≥ 256000 ng/mL |

These reach a lower MIC50 [4]. Values come first.

| MIC [1] | MIC50 [2] | MIC90 [2] | MIC50 [3] | MIC90 [3] | MIC50 [4] | MIC90 [4] | MIC50 [5] | MIC90 [5] | MIC [6] | MIC50 [6] | MIC90 [6] | MIC [4] | Compound | MIC [2] |
| --- | --- | --- | --- | --- | --- | --- | --- | --- | --- | --- | --- | --- | --- | --- |
|  |  |  |  |  | 16 ng/mL (≈ 37.6 nM) | 31 ng/mL (≈ 72.9 nM) |  |  | ≤ 8 ng/mL | ≤ 8 ng/mL | 16 ng/mL (≈ 37.6 nM) |  | CCC[C@@H]1C[C@@H](C(=O)N[C@@H]([C@H]2O[C@H](SC)[C@H](O)[C@@H](O)[C@H]2O)[C@H](C)Cl)N(C)C1 [CLINDAMYCIN] |  |
| ≤ 0.032 ng/mL | 8 ng/mL (≈ 9.47 nM) | 31 ng/mL (≈ 36.7 nM) | 8 ng/mL (≈ 9.47 nM) | 16 ng/mL (≈ 18.9 nM) | ≤ 8 ng/mL | ≤ 8 ng/mL | 0.032 ng/mL (≈ 0.0379 nM) | 0.125 ng/mL (≈ 0.148 nM) |  | 4 ng/mL (≈ 4.73 nM) | 8 ng/mL (≈ 9.47 nM) | ≤ 8 ng/mL | CC[C@H]1OC(=O)[C@@](C)(F)C(=O)[C@H](C)[C@@H](O[C@@H]2O[C@H](C)C[C@H](N(C)C)[C@H]2O)[C@](C)(OC)C[C@@H](C)C(=O)[C@H](C)[C@H]2N(CCCCn3cc(-c4cccc(N)c4)nn3)C(=O)O[C@]12C [SOLITHROMYCIN] |  |
| ≤ 0.03 ng/mL | 63 ng/mL (≈ 77.6 nM) | 250 ng/mL (≈ 308 nM) | 63 ng/mL (≈ 77.6 nM) | 125 ng/mL (≈ 154 nM) | ≤ 8 ng/mL | 16 ng/mL (≈ 19.7 nM) | 0.25 ng/mL (≈ 0.308 nM) | 1 ng/mL (≈ 1.23 nM) |  | 250 ng/mL (≈ 308 nM) | 500 ng/mL (≈ 616 nM) |  | CC[C@H]1OC(=O)[C@H](C)C(=O)[C@H](C)[C@@H](O[C@@H]2O[C@H](C)C[C@H](N(C)C)[C@H]2O)[C@](C)(OC)C[C@@H](C)C(=O)[C@H](C)[C@H]2N(CCCCn3cnc(-c4cccnc4)c3)C(=O)O[C@]12C [TELITHROMYCIN] |  |
